Assay results reported in PubChem BioAssay AID1645848.
Values after ≈ are worked out from the molar mass of the structure shown.

Settings: buffer; pH 7.4; 6.0 h; 150.0 µM

| Structure (SMILES) | solubility kinetic |
| --- | --- |
| CS(=O)(=O)c1ccc(-c2nnc(/C=C/c3nnc(-c4ccc(C#N)cc4)o3)n2-c2ccccc2Cl)nc1 | 4.17 µg/mL (≈ 7.86 µM) |
| CCOc1ccc(CCNC(=O)c2cc3cnccc3n2Cc2cccc(C)c2)cc1OCC | > 68 µg/mL |
| CCOC(=O)c1nn(-c2ccccc2)c(=O)c2c(N)scc12 | 4.02 µg/mL (≈ 12.7 µM) |
| CCc1nc2c(sc3nc4c(cc32)COC(C)(C)C4)c(=O)n1Cc1ccco1 | 6.22 µg/mL (≈ 15.7 µM) |
| O=C(O)C(=O)O.Oc1ccccc1NCC(O)Cn1ccc2ccccc21 (configuration not stated) | 8.51 µg/mL |
| CCOc1ccc(C(=O)Nc2ccc(S(=O)(=O)N3CCCCC3c3cccnc3)cc2)cc1 (configuration not stated) | < 1 µg/mL |
| COC(=O)c1ccccc1NC(=O)c1ccccc1OC(F)F | < 1 µg/mL |
| CCOc1ccc(-c2nc(SCC(=O)Nc3ccc(C)c(C)c3)n3[nH]c(=O)cc3n2)cc1 | < 1 µg/mL |
| O=C(c1ccccc1)N1CCN(c2nc(-c3ccc(Br)cc3)cs2)CC1 | < 1 µg/mL |
| O=C(Cc1ccc(Cl)c(Cl)c1)Nc1ccc(S(=O)(=O)Nc2cccc(O)c2)cc1 | < 1 µg/mL |
| COc1ccc(-c2noc(CSc3nnc(Cc4ccccc4)n3-c3ccc(F)cc3)n2)cc1 | < 1 µg/mL |
| COc1cc(/C=C(\C#N)c2nc3ccccc3[nH]2)ccc1OCc1ccc(F)cc1 | < 1 µg/mL |
| CN(C)C(=O)c1ccc(-c2cc[nH]c(=O)c2N)cc1 | > 38 µg/mL |
| O=C(CNC12CC3CC(CC(C3)C1)C2)c1ccc(Cl)cc1 | 34.6 µg/mL (≈ 114 µM) |
| Cc1cnc(-c2ccccc2C(C)C)nc1NCC1CCN(C2COC2)CC1 | > 56 µg/mL |
| Cc1ccc2c(c1)c(=O)c1ccccc1n2CCCC(=O)Nc1cc(Cl)ccc1C | < 1 µg/mL |
| Cc1ccc(S(=O)(=O)Nc2cnccc2C(=O)Nc2nc(-c3ccncc3)cs2)cc1 | > 67 µg/mL |
| CCOc1ccc(Nc2nc(C)c(NC(=O)c3ccc(C)cc3)c(Nc3ccc(OCC)cc3)n2)cc1 | < 1 µg/mL |
| O=C(O)c1ccc(-c2c[nH]c3ncc(-c4ccccc4)cc23)cc1C1CCCC1 | 7.57 µg/mL (≈ 19.8 µM) |
| Oc1ccc(CNc2ccc(F)cc2F)c2cccnc12 | 1.22 µg/mL (≈ 4.27 µM) |
| C=C[C@]1(C)C[C@@H](OC(=O)CSC(C)(C)CNC(=O)[C@H](N)C(C)C)[C@]2(C)[C@H](C)CC[C@]3(CCC(=O)[C@H]32)[C@@H](C)[C@@H]1O | 36.6 µg/mL (≈ 64.8 µM) |
| c1ccc(CNc2cc3c(cn2)CN(Cc2cccnc2)CCN3)cc1 | 36.5 µg/mL (≈ 106 µM) |
| Cc1cccc2c1NC(=O)/C2=C/c1cc(Cl)c(O)c(Cl)c1 | 10.1 µg/mL (≈ 31.5 µM) |

| Structure (SMILES) | solubility kinetic |
| --- | --- |
| COc1ccc(-c2csc(N3CCC(C(N)=O)CC3)n2)cc1 | > 47 µg/mL |
| N#Cc1cccc(-c2csc(N3CCC(C(N)=O)CC3)n2)c1 | 10.7 µg/mL (≈ 34.3 µM) |
| Nc1ccc(S(=O)(=O)Nc2cnccc2C(=O)Nc2nc(-c3ccccc3)cs2)cc1 | 43.2 µg/mL (≈ 95.7 µM) |
| CSc1ccc(-c2cnc(N3CCC(C(N)=O)CC3)s2)cc1 | < 1 µg/mL |
| Brc1ccc(-c2csc(N3CCC(c4nn[nH]n4)CC3)n2)cc1 | > 58 µg/mL |
| O=S(=O)(Nc1nccs1)c1ccc(NCc2ccccc2)cc1 | 31.9 µg/mL (≈ 92.4 µM) |
| COc1cccc2nc(-c3cccs3)nc(NN3C(=O)C=C(C)C3=O)c12 | > 54 µg/mL |
| Fc1ccc(Nc2nc(-c3ccccc3)nc3ccccc23)cc1F | < 1 µg/mL |
| COc1ccccc1C(=O)Nc1ccccc1C(=O)Nc1cccc(SC(F)(F)F)c1 | < 1 µg/mL |
| O=S(=O)(c1ccccc1)c1nnn2c1nc(NCc1cccs1)c1sccc12 | < 1 µg/mL |
| COc1cccc(CNc2ccc([S+](=O)([O-])Nc3cc4ccccc4s3)cc2)c1O | < 1 µg/mL |
| O=C(Nc1ccc(Cl)cc1)Nc1ccc(Cl)c(Cl)c1 | < 1 µg/mL |
| O=C(Nc1cccc(Cc2ccccc2)c1)c1ccc(-c2cccc([N+](=O)[O-])c2)o1 | < 1 µg/mL |
| Cc1ccccc1OCC(O)CO (configuration not stated) | > 27 µg/mL |
| CCOc1ccc(CCNC(=O)c2cc3cccnc3n2Cc2cccc(C)n2)cc1OCC | 43.8 µg/mL (≈ 95.4 µM) |
| Cc1cnc(NC(=O)c2ccc(-c3cccc([N+](=O)[O-])c3)o2)s1 | < 1 µg/mL |
| COc1cccc(CNc2ccc(S(=O)(=O)Nc3ccc(C4CCNCC4)cc3)cc2)c1O | 58.4 µg/mL (≈ 125 µM) |
| NC(=O)C1CCN(c2nccc(-c3ccc(Br)cc3)n2)CC1 | 5.39 µg/mL (≈ 14.9 µM) |
| CC(=O)Nc1cccc(Nc2nc3ccccc3n3c(C)nnc23)c1 | < 1 µg/mL |
| O=C(c1ccc2c(c1)ncn2-c1ccc(C(F)(F)F)cc1)N1CCCCC1 | > 55 µg/mL |
| COc1ccc(-c2ccc3nc(-c4cc(C)cc(C)c4)oc3c2)c(OC)c1OC | < 1 µg/mL |
| CNC(=O)c1cccc(-c2cnc(Nc3cccc(C(F)(F)F)c3)c3c2CCO3)c1 | < 1 µg/mL |
| CC(C)(C)C(=O)N1CCN(c2nccc(Nc3ccccc3Cl)n2)CC1 | 26.3 µg/mL (≈ 70.3 µM) |

| Structure (SMILES) | solubility kinetic |
| --- | --- |
| CCN(CC)S(=O)(=O)c1cccc(C(=O)Nc2ccc(C#N)cc2)c1 | 10.2 µg/mL (≈ 28.5 µM) |
| Cc1noc(C)c1-c1cc(-c2ccc3c(c2)C(=O)NC3)cn2cncc12 | > 76 µg/mL |
| O=C1Nc2ccccc2C1Cc1cc(Cl)c(O)c(Cl)c1 (configuration not stated) | > 45 µg/mL |
| CCN1CCN(CCCNC(=O)c2ccc3c(c2)sc2nc(-c4ccc(OC)cc4)cn23)CC1 | > 71 µg/mL |
| CC(C)COc1ccc(-c2csc(N3CCC(C(N)=O)CC3)n2)cc1 | 2.68 µg/mL (≈ 7.45 µM) |
| COc1cccc(O)c1CNc1ccc(S(=O)(=O)Nc2nccs2)cc1 | > 58 µg/mL |
| COc1cc2cc(CN3CCC(N(C)C)C3)c(-c3cccc(Cl)c3)nc2cc1OC (configuration not stated) | > 42 µg/mL |
| COc1ccc(-c2ccc3nc(-c4ccc(SC)cc4)oc3c2)c(OC)c1OC | < 1 µg/mL |
| CC[C@H]1CN2CCc3cc(OC)c(OC)cc3[C@@H]2C[C@@H]1C[C@H]1NCCc2cc(OC)c(OC)cc21 | > 71 µg/mL |
| Cc1cc(NS(=O)(=O)c2ccc(NC(=O)Cc3ccc(Cl)c(Cl)c3)cc2)n(C)n1 | > 67 µg/mL |
| CCOc1ccc(/C=C/c2nc3ccccc3n2S(=O)(=O)c2ccc(Br)cc2)cc1 | 0.131 µg/mL (≈ 0.271 µM) |
| CC(C)c1ccccc1-c1ncc(F)c(NCc2ccc(-c3ccn[nH]3)cc2)n1 | < 1 µg/mL |
| CCc1cccc(NC(=O)c2c(C)oc3nc(C)nc(N4CCCC4)c23)c1 | 14.8 µg/mL (≈ 40.6 µM) |
| Cc1ccc(S(=O)(=O)Nc2cnccc2C(=O)Nc2nc(-c3ccccc3)cs2)cc1 | 9.42 µg/mL (≈ 20.9 µM) |
| O=C(O)c1cccc(-c2noc(-c3ccccc3F)n2)c1 | 7.02 µg/mL (≈ 24.7 µM) |
| NC(=O)C1CCN(c2nc(-c3ccc4occc(=O)c4c3)cs2)CC1 | > 52 µg/mL |
| CCOc1ccc(CCNC(=O)c2cc3cnccc3n2Cc2cccc(C)n2)cc1OCC | > 68 µg/mL |
| COc1ccc(-c2csc(CCn3nc(C)c4c(C(F)(F)F)cc(=O)[nH]c43)n2)cc1 | < 1 µg/mL |
| CC1=Nc2cc(C(=O)NCc3ccccc3Cl)ccc2Sc2c(C)ccc(C)c21 | < 1 µg/mL |
| Fc1ccc(Nc2nc(-c3ccnc(C(F)(F)F)c3)nc3ccccc23)cc1F | < 1 µg/mL |
| O=C(Nc1ccc(C(=O)Nc2nccs2)cc1)c1ccc2ccccc2c1 | < 1 µg/mL |

The remaining lines, values ahead:

| solubility kinetic | Structure (SMILES) |
| --- | --- |
| 34.6 µg/mL (≈ 73.9 µM) | Cc1cc(F)ccc1S(=O)(=O)Nc1cnccc1C(=O)Nc1nc(-c2ccccc2)cs1 |
| 23.1 µg/mL (≈ 57.5 µM) | C=CCc1cccc(CNc2ccc(S(=O)(=O)Nc3nccs3)cc2)c1O |
| > 45 µg/mL | Cc1cccc(-c2csc(N3CCC(C(N)=O)CC3)n2)c1 |
| > 31 µg/mL | CC(=O)c1c(C)[nH]c(C(=O)N(C)C)c1C |
| 73 µg/mL (≈ 118 µM) | CC(C)N(CCCNC(=O)Nc1ccc(C(C)(C)C)cc1)C[C@H]1O[C@@H](n2cc(Br)c3c(N)ncnc32)[C@H](O)[C@@H]1O |
| < 1 µg/mL | Cc1ccc2cccc(NC(=O)c3ccc(OC(C)C)cc3)c2n1 |
| 34.2 µg/mL (≈ 107 µM) | Cc1cccc2nc(-c3ccccn3)c(Nc3ccc(F)cc3)n12 |
| 4.04 µg/mL (≈ 9.67 µM) | CCOC(=O)CCNc1cc(N2CCc3ccccc3CC2)nc(-c2cccnc2)n1 |
| > 52 µg/mL | Cn1cnc(-c2nccc3c(=O)[nH]c(OCCCC(F)(F)F)nc23)c1 |
| < 1 µg/mL | O=C(Nc1ccccc1)C1CC(=O)N(c2n[nH]c3cc(Br)ccc23)C1 (configuration not stated) |
| < 1 µg/mL | O=C1CCCC2=C1C(c1[nH]ncc1Cl)N=C(Nc1nc3ccccc3o1)N2 (configuration not stated) |
| 5.33 µg/mL (≈ 17.8 µM) | CC(C)CNC(=O)c1cn2cc(-c3ccccc3)sc2n1 |
| > 37 µg/mL | CSc1ccc(C(=O)c2[nH]c(=O)[nH]c2C)cc1 |
| < 1 µg/mL | C#Cc1ccc(NC(=O)c2cnn3c(C)cc(C)nc23)cc1 |
| < 1 µg/mL | CCCc1ccc(NC(=O)c2ccc3c(c2)NC(=O)CS3)cc1 |
| < 1 µg/mL | Cc1ccc(-c2csc(CCn3nc(C)c4c(C(F)(F)F)cc(=O)[nH]c43)n2)cc1 |
| 3.36 µg/mL (≈ 8.88 µM) | Cc1cc(C)nc(NC(=S)N2CCN(c3ccc(Cl)cc3F)CC2)c1 |
| < 1 µg/mL | COc1ccccc1N1CCN(c2ccc3cc(S(=O)(=O)N4CCCCC4)ccc3n2)CC1 |

| solubility kinetic | Structure (SMILES) |
| --- | --- |
| 3.58 µg/mL (≈ 10.4 µM) | COc1ccc(Nc2cc(C)nc(-n3nc(C)cc3C)n2)cc1Cl |
| < 1 µg/mL | Fc1ccc(-c2ccc(Nc3nc(-c4ccncc4)nc4ccccc34)cc2F)c(F)c1 |
| < 1 µg/mL | O=C(c1cccs1)c1nonc1C(=O)c1cccs1 |
| 20.9 µg/mL (≈ 57.6 µM) | Cc1cc(-c2nnc3n2CCCCC3)c(C)n1-c1ccc(C(C)(C)C)cc1 |
| 35.3 µg/mL (≈ 123 µM) | COc1ccc(NC(=O)c2[nH]c(C)c(C(C)=O)c2C)cc1 |
| < 1 µg/mL | COc1ccc2[nH]c(=O)c(-c3noc(-c4cccs4)n3)cc2c1 |
| 14 µg/mL (≈ 39.5 µM) | COc1ccc(-n2c(C)cc(C3=NNC(=NC4CC4)SC3)c2C)cc1 |
| < 1 µg/mL | Fc1ccc(Nc2nc(-n3ccnc3)nc3ccccc23)cc1F |
| < 1 µg/mL | COc1ccc(CCNc2ncnc3c2c(-c2ccccc2)cn3-c2cccc(Cl)c2)cc1OC |
| < 1 µg/mL | COc1cc(-c2nc(Nc3ccc(F)c(F)c3)c3ccccc3n2)ccn1 |
| 1.11 µg/mL (≈ 2.62 µM) | O=[S+]([O-])(Nc1ccccc1)c1ccc(NCc2cccc(C(F)(F)F)c2F)cc1 |
| < 1 µg/mL | Cc1ccc(-c2c(CN3CCN(c4cccc(C(F)(F)F)c4)CC3)csc2C)cc1 |
| 0.29 µg/mL (≈ 0.72 µM) | Cc1sc2ncnc(Sc3nnnn3-c3ccccc3)c2c1-c1ccccc1 |
| < 1 µg/mL | Oc1c(C(Nc2nccs2)c2ccc(C(F)(F)F)cc2)ccc2cccnc12 (configuration not stated) |
| > 73 µg/mL | CC(NCc1ccc2c(c1)nc(NC(=O)c1ccc(-c3cn[nH]c3)s1)n2CC(C)(C)O)C(C)(C)C (configuration not stated) |
| < 1 µg/mL | Nc1c(-c2ccccc2)cnc2c(-c3ccccc3)cnn12 |
| < 1 µg/mL | Cc1ccc(NC(=O)c2cc(S(=O)(=O)NCCC3=CCCCC3)ccc2F)cc1F |
